Holding throughout (assay): NCI tumour cell line growth inhibition, 48 h
In experiment [1] the test system is HOP-92 NSCLC.
For experiment [2], the system named is NCI-H23 lung.
The subject of experiment [3] is NCI/ADR-RES ovarian.
Experiment [4] deals with SNB-75 CNS.
The subject of experiment [5] is MDA-MB-435.
In experiment [6] the test system is DU-145 prostate.
The subject of experiment [7] is SW-620 colon.
Experiment [8] relates to SNB-19 CNS.
Experiment [9] relates to A498 renal.
The subject of experiment [10] is M14 melanoma.

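Protocol summary: plate cells (96-well), add compound at 5 concentrations, incubate 48 h, interpolate endpoints linearly. Abbreviation: GI50, concentration required for 50% inhibition of growth. TGI denotes the concentration required for complete inhibition of growth.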

As for `Cc1ccc(C2=NN(c3ccc(S(N)(=O)=O)cc3)C(c3cn(-c4ccccc4)nc3-c3ccccc3)C2)cc1` (stereo not given), the GI50 in experiment [1] is 3.33 µM; in experiment [2] it was 14.1 µM; in experiment [3], 11.1 µM; in experiment [4] it was 80.5 µM; in experiment [5], 10 µM; in [6] it was 67.9 µM. For the same compound, the GI50 was 9.82 µM in experiment [7], more than 100 µM in experiment [8], 1.84 µM in [9] and 8.54 µM in experiment [10]. For the same compound, the TGI is 22.2 µM in experiment [1]; more than 100 µM in experiment [2]; more than 100 µM in experiment [3]; more than 100 µM in experiment [4]; more than 100 µM in experiment [5]; more than 100 µM in experiment [6]. Further, the TGI is more than 100 µM in [7], more than 100 µM in experiment [8], 5.19 µM in [9] and more than 100 µM in experiment [10].

`O=S(=O)(CCCCl)SCCCCl`: the TGI in experiment [1] is 78.3 µM; in experiment [2], more than 100 µM; in experiment [3] it was more than 85.3 µM; in experiment [4], more than 94 µM; in experiment [5], more than 67.2 µM; in experiment [6], more than 100 µM. In addition, the TGI in experiment [7] is 42.3 µM; in experiment [8], more than 100 µM; in experiment [9], more than 100 µM; in experiment [10], 47.3 µM.

In the case of `Nc1nc(-c2cccs2)cs1`, the TGI in [1], in experiment [2], in experiment [3], in [4], in [5] and in experiment [6] was more than 100 µM throughout. The TGI in [7], in experiment [8], in [9] and in experiment [10] was more than 100 µM in each case.

Turning to `C=CCSSc1ncnc2c1ncn2C1OC(CO)C(O)C1O` (stereo not given), the GI50 in experiment [1] is 0.222 µM; in experiment [2] it was 3.94 µM; in experiment [3], 3.86 µM; in experiment [4] it was 0.731 µM; in experiment [5], 2.38 µM; in experiment [6], 1.24 µM. In addition, the GI50 in experiment [7] is 4.07 µM; in [8], more than 55.7 µM; in [9] it was 39.3 µM; in experiment [10], 0.536 µM. Further, the TGI is 4.98 µM in experiment [1]; more than 74.2 µM in experiment [2]; more than 100 µM in [3]; 96.9 µM in [4]; more than 100 µM in experiment [5]; more than 48.1 µM in [6]. The TGI in experiment [7] was 23.2 µM; in experiment [8] it was more than 100 µM; in experiment [9], more than 100 µM; in [10] it was more than 100 µM.

Consider `O=C(NCCCCCCNC(=O)OCc1ccc2c(Cl)cc(Cl)c(O)c2n1)OCc1ccc2c(Cl)cc(Cl)c(O)c2n1`, for which the GI50 in [1] was 0.515 µM; in experiment [2] it was 1.42 µM; in [3], 0.518 µM; in experiment [4] it was 0.567 µM; in experiment [5], 0.443 µM; in experiment [6], 1.03 µM. Moreover, the GI50 in [7] was 0.303 µM; in [8], 1.49 µM; in experiment [9] it was 1.25 µM; in experiment [10], 0.893 µM. In addition, the TGI was 2.17 µM in experiment [1]; 3.06 µM in experiment [2]; 6.58 µM in [3]; 2.08 µM in experiment [4]; 1.71 µM in [5]; 2.24 µM in [6]. The TGI in experiment [7] turned out to be 0.984 µM; in experiment [8] it was 2.91 µM; in experiment [9] it was 2.55 µM; in [10] it was 2.32 µM.

For `COc1ccc2nc(-c3cc4c([nH]c5ccccc54)c(-c4ccc(F)c(F)c4)n3)[nH]c2c1`, the GI50 in experiment [1] is 5.96 µM; in experiment [2], 6.56 µM; in experiment [3] it was 4.22 µM; in [4], 14.2 µM; in experiment [5], 3.69 µM; in experiment [6] it was 4.13 µM. Also, the GI50 in experiment [7] is 4.82 µM; in [8], 8.57 µM; in [9], 9.84 µM; in [10] it was 4.02 µM. Moreover, the TGI in experiment [1] amounted to 29.5 µM; in [2], 27.5 µM; in experiment [3], 64.8 µM; in experiment [4], 29.7 µM; in experiment [5], 15.4 µM; in [6], 17.3 µM. Also, the TGI is 23.7 µM in experiment [7], more than 100 µM in experiment [8], 56.6 µM in experiment [9] and 16.9 µM in [10].

With `Cc1nn(C)c2cc(N(C)c3ccnc(Nc4cccc(S(N)(=O)=O)c4)n3)ccc12`, the GI50 in experiment [1] was 4.39 µM; in experiment [2], 6.6 µM; in [3], 7.85 µM; in [4] it was 5.89 µM; in [5], 6.12 µM; in experiment [6], 7.18 µM. In addition, the GI50 in experiment [7] was 11.3 µM; in experiment [8], 13.2 µM; in experiment [9], 5.27 µM; in experiment [10], 8.11 µM. In addition, the TGI is more than 25 µM in [1]; more than 25 µM in experiment [2]; more than 25 µM in experiment [3]; more than 23.7 µM in experiment [4]; more than 25 µM in experiment [5]; more than 25 µM in [6]. Further, the TGI is more than 25 µM in experiment [7], more than 25 µM in experiment [8], 17.5 µM in experiment [9] and more than 25 µM in experiment [10].

With `Cc1nc2sc(C(=O)Nc3cccc(Br)c3)c(N)c2cc1C(O)c1ccccc1` (stereo not given), the GI50 in experiment [1] was 4.27 µM; in [2], 1.13 µM; in experiment [3] it was 0.619 µM; in experiment [4] it was 0.224 µM; in [5], 0.199 µM; in experiment [6], 0.672 µM. The GI50 in [7] was 0.375 µM; in experiment [8], 1.48 µM; in experiment [9] it was 0.219 µM; in [10], 0.466 µM. In addition, the TGI is 32.4 µM in experiment [1]; 17.9 µM in experiment [2]; 8.47 µM in [3]; 4.15 µM in [4]; 0.449 µM in experiment [5]; 13.9 µM in experiment [6]. The TGI in experiment [7] was more than 38 µM; in [8], 18.9 µM; in experiment [9], 0.746 µM; in experiment [10], 29.7 µM.

`Nc1nc(-c2ccc(Cl)cc2)cc(-c2ccccc2)c1-c1nc2ccccc2o1`: the GI50 in experiment [1] is 2.19 µM; in experiment [2], 6.24 µM; in experiment [3], 5.46 µM; in experiment [4] it was 10.5 µM; in [5], 9.45 µM; in [6], 7.68 µM. Also, the GI50 in [7] was 13.4 µM; in [8], 18.6 µM; in experiment [9] it was 15.8 µM; in experiment [10], 10.4 µM. The TGI in experiment [1] was 6.18 µM; in [2] it was 34.6 µM; in [3], more than 100 µM; in experiment [4] it was 24.5 µM; in experiment [5], 26.9 µM; in experiment [6], 30.4 µM. Moreover, the TGI in [7] turned out to be 31.1 µM; in experiment [8], 44.6 µM; in experiment [9], 30.5 µM; in experiment [10], 26.2 µM.

As to `C=C(CN(C)C)C(=O)c1ccc(Oc2ccccc2)cc1`, the TGI in experiment [1] is more than 25.5 µM; in experiment [2], 24.9 µM; in [3], more than 100 µM; in experiment [4], 35.5 µM; in [5] it was 10.3 µM; in experiment [6] it was 27.6 µM. In addition, the TGI in experiment [7] amounted to 9.27 µM; in experiment [8], 28.8 µM; in experiment [9], 42.1 µM; in [10] it was 4.02 µM.

Values taken from PubChem BioAssay (NCI).
